# Experimental data from patent US5620676A, “Biologically active ATP analogs” (priority 1995, dated 1997).
# Several values for one entry are separate records, joined by “and”; a condition that tells them apart may be missing. Equal values may be shown once. Entries after “also recorded” stand apart in the source; their conditions may differ. Read-outs that look alike come from different tables or passages of the source.
# Tests used:
# [1] = system: P2Y receptor (aorta endothelium); assay: Relaxation of noradrenalin-contracted rabbit aorta; details: rabbit aorta; log molar units
# [2] = target: P2Y receptor (mesenteric artery); assay: Relaxation of rabbit mesenteric artery; details: log molar units
# Source text: Muscular relaxation/contraction: Relaxant responses mediated via P2Y receptors were examined in guinea pig taenia coli, rabbit aorta, and rabbit mesenteric artery, as described by Hoyle et al. (Br. J. Pharmacol., 107, 367-374 (1992a)), Burnstock et al., (Br. J. Pharmacol., 90, 383-391 (1987a)), and Rubino et al., (Eur. J. Pharmacol., 212, 237-240 (1992)).
# [3] = target: T1, P2X receptor (saphenous artery) (Oryctolagus cuniculus, UniProt G1U3D6); assay: Contraction of rabbit saphenous artery; details: rabbit saphenous artery; for activation at 10 µM: read-out: response at 10 μM relative to the contraction produced by 1 μM α,MeATP, saph. artery
# T1 construct: and rabbit saphenous artery; from tissue; host or cells: rabbit saphenous artery
# T1 sequence (G1U3D6 1-399): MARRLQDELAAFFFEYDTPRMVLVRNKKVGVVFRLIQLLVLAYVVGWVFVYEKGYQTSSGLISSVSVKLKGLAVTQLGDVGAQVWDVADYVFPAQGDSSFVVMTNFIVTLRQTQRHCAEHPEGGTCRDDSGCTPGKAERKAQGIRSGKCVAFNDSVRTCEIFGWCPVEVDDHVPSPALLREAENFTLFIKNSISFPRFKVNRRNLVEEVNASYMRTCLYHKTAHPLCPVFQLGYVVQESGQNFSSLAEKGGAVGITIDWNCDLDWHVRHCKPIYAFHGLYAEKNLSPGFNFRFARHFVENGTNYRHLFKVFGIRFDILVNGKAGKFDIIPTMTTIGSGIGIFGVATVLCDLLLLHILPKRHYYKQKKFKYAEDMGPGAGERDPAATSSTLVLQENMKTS
# Summary of the method: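 Contraction of isolated rabbit saphenous artery, standard organ-bath methods; responses at 10 μM expressed as percentage of contraction produced by 1 μM α,MeATP. Highest analogue concentrations tested were 3-30 […].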
# [4] = target: T2, adenylyl cyclase linked P2Y receptor (C6 rat glioma cells) (Rattus norvegicus, UniProt Q9EPX4); assay: Inhibition of adenylyl cyclase in C6 rat glioma cells; type: cell-based; details: for selectivity for the adenylyl cyclase linked (C6 cell) receptor: versus phospholipase C linked turkey erythrocyte receptor
# T2 construct: endogenous in cells; host or cells: C6 rat glioma cells
# T2 sequence (Q9EPX4 whole entry): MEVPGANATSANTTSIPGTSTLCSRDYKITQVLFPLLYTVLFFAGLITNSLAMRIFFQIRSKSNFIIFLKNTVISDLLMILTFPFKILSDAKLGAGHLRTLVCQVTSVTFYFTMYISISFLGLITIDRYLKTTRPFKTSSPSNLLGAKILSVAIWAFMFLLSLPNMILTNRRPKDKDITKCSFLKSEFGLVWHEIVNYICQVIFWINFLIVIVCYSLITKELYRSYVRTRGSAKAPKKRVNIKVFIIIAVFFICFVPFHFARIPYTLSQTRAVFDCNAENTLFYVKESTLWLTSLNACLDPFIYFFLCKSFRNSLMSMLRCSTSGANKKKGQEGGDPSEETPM
# Summary of the method: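 C6 cells labelled 2 h with [3H]adenine, preincubated 10 min at 37 °C in HEPES-buffered Eagle's medium (pH 7.5) with 200 μM IBMX. Stimulated 10 min with 10 μM isoproterenol plus varied nucleotide concentrations. Stopped with ice-cold 5% trichloroacetic acid.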
# [5] = target: T3, P2Y receptor (turkey erythrocyte membranes) (Meleagris gallopavo, UniProt P49652); assay: Stimulation of phospholipase C (inositol phosphate formation) in turkey erythrocyte membranes; type: biochemical; details: for maximal level (100%) of [3H]inositol phosphate accumulation: with GTPγS and maximal concentration of agonist
# T3 construct: from tissue; host or cells: washed turkey erythrocytes, ghosts prepared by hypotonic lysis
# T3 sequence (P49652 whole entry): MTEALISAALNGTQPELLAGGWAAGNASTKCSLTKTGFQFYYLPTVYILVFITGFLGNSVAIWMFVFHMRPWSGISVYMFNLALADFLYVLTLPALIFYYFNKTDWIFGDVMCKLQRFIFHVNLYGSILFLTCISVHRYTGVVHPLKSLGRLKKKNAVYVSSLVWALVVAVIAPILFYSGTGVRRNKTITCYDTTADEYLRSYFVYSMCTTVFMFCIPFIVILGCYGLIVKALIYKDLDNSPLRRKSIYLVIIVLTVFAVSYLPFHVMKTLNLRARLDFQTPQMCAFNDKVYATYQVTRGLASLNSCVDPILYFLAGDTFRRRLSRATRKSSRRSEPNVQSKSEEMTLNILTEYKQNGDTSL
# Summary of the method: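 Erythrocytes were labelled 18-24 h at 37 °C with [3H]myoinositol, and ghosts were made by hypotonic lysis. Ghosts (≈175 μg protein) were incubated 5 min at 30 °C in Hepes buffer pH 7.0 with 1 μM GTPγS and nucleotide analogs. Total [3H]inositol phosphates were purified by anion exchange; K0.5 averaged from 3-8 dose-response curves.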
# [6] = turkey erythrocyte membranes, mean ± S.E.M. for at least 2 determinations, read-out: phosphatidyl inositol metabolism (K0.5, nM) erythrocyte
Structure (SMILES),"relaxation pD2, aorta [1]","relaxation pD2, mes. artery [2]","activity/potency in words, saphenous artery [3]",activation at 10 µM [3],selectivity for the adenylyl cyclase linked (C6 cell) receptor [4],"activity/potency in words, turkey erythrocyte ([5]; turkey erythrocyte membranes)","EC50 [5, 6]","EC50 ([5]; turkey erythrocyte membranes, read-out: K0.5)",maximal level (100%) of [3H]inositol phosphate accumulation [5],"IC50 ([4]; C6 rat glioma cells, 10 μM isoproterenol, read-out: K0.5 values (in nM) for inhibition of adenylyl cyclase in C6 cells)","fold diminished potency upon N6-methylation, turkey erythrocyte ([5]; relative to 2-(5-hexenyl)thio-ATP)","EC50 ([5]; turkey erythrocyte membranes, read from graph, read-out: K0.5)"
"N#CCCCCCCSc1nc(N)c2ncn([C@@H]3O[C@H](COP(=O)(O)OP(=O)(O)OP(=O)(O)O)[C@@H](O)[C@H]3O)c2n1 [2-(6-Cyanohexylthio)-ATP, 2-(6-Cyanohexylthio)adenosine-5'-triphosphate]",6.9,7.0,at best weak agonists in the saphenous artery,9.2%,3.9 -fold,at least two orders of magnitude more potent; also recorded: about three orders of magnitude more potent,10 ± 5 nM,5 to 30 nM and ~10 nM,6000 cpm,–,–,–
"C=CCCCCSc1nc(NC)c2ncn([C@@H]3O[C@H](COP(=O)(O)OP(=O)(O)OP(=O)(O)O)[C@@H](O)[C@H]3O)c2n1 [N^6 -Me-2-(5-hexenyl)-thio-ATP, N^6 -Me-2-(5-hexenylthio)adenosine 5'-triphosphate]",5.6,6.0,–,1.5%,81 -fold,–,26 ± 7 nM,–,9150 cpm,0.32 nM,2.6 -fold,10 nM
